Test results reported in patent publication US20020137706A1, “Regulated growth factor delivery for engineered peripheral nerve” (priority 2000, published 2002).

Tests used:
[1] = test system: right sciatic nerve defect; settings: rat, in vivo
Protocol: Surgical Technique. Twenty-one Sprague Dawley (250 gms) rats with a right sciatic nerve defect were implanted with the 12 mm PLLA conduits. […] Briefly the animals were anesthetized and maintained by a 0.4 cc intramuscular injection of a premixed solution containing 64 mg/ml ketamine HCL (Keta-Sthetic™ Boehringer Ingelheim, St Joseph, Mo.), 3.6 mg/ml xylazine (Rompun™ Miles Inc., Shawnee Mission, Kans.), and 0.07 mg/ml atropine sulfate (Elkins-Sinn Inc., Cherry Hill, N.J.). The skin from the clipped lateral thigh was scrubbed in a routine fashion with antiseptic solution. The incision extended from the greater trochanter to the midcalf distally. The sciatic and posterior tibial nerves were exposed by a muscle splitting incision. […]
The medical and lateral gastrocnemius muscle was harvested at 6 and 16 weeks and weighed in order to assess nerve reinnervation. […] The difference in weight of the containers before and after muscle placement determined the muscle weight.
Histological Assessment. […] Images of the histological sections were digitized using a CCD camera and subsequently analyzed using standard image processing and analysis techniques. […] The number of axons were counted to give the number of axons/mm^2. The area of each axon was determined, summed together, and expressed as area axons/image area to give the nerve fiber density. […]

PC-12 cells = test: Bioactivity assay of released NGF, PC-12 differentiation; assay type: cell-based; settings: 4 days culture in supernatant of MurA-induced transfected hDFBs; p≦0.002
Protocol: PC-12 cells were obtained from ATCC (CRL-1721). PC-12 cells were maintained in F12k supplemented with 15% horse serum (Sigma, St. Louis, Mo.), 2.5% FBS, and penicillin-streptomycin-glutamine mixture (Gibco). For the NGF bioactivity assay, PC-12 cells were seeded at 10^2 cells/750 μL in 12-well plates.
NGF Bioactivity. Bioactivity assay of released NGF was assessed using PC-12 cells with their differentiation as the endpoint. PC-12 cells were incubated with PC.12 culture media (control) or media supernatants from transfected hDFBs in the presence of MurA (i.e., media with released NGF). Briefly, hDFBs were cultured and exposed to 3 μM Muristerone for 3 days in 12-well plates.
The media, theoretically with containing NGF released from transfected hDFBs, was then removed and used to culture PC-12 cells in 12-well plates. After 4 days, random images were digitized of each well and the number of differentiated and undifferentiated Data are reported as fraction of PC-12 cells that were differentiated.

neuromas [1] | Substance | inflammatory reaction [1] | PC-12 differentiation versus media alone (PC-12 cells)
no neuromas were apparent clinically | poly (L-Lactic acid) [PLLA conduits] | No severe inflammatory reaction could be identified | –
– | NGF secreted from hDFBs: nerve growth factor in media supernatants from transfected hDFBs in the presence of MurA | – | markedly higher levels
